Measured values: US10882837B2, “Amide compounds and use thereof” (ALPHALA CO., LTD., priority 2017, dated 2021)

How the values were obtained:
glucagon receptor (GCGR) = target: T1, glucagon receptor (GCGR) (Homo sapiens, UniProt P47871); assay: Glucagon cAMP inhibition assay (Cisbio cAMP Dynamic 2 HTRF); type: cell-based; conditions: GCGR overexpressed CHO-K1 cells or human primary hepatocytes (not specified); glucagon at EC50
T1 construct: expressed in transfected cells; host or cells: CHO-K1
Method in brief: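 GCGR-overexpressing CHO-K1 cells or human primary hepatocytes in HBSS with 0.1% BSA and 800 nM IBMX, pre-incubated 30 min with compound (1% DMSO final), then stimulated 30 min at room temperature with glucagon at its EC50. cAMP measured by HTRF after 60 min lysis; IC50 from non-linear regression.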

GCGR = GCGR (Homo sapiens, UniProt P47871); assay: I125-glucagon binding assay (competition, GCGR membrane fractions); set-up: expressed in transfected cells; host or cells: CHO-K1; inhibition: dose or concentration left out as unconfirmed; conditions: for IC50: competition with I125-glucagon 0.0625 nM, membrane fractions from GCGR overexpressed CHO-K1 cells
Method in brief: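 Membranes from CHO-K1 cells overexpressing GCGR (7.5 µg/well) were preincubated 5 min with serially diluted compound in 50 mM Tris pH 7.4, 0.5% BSA. I125-glucagon was then added at 0.0625 nM final and incubated 30 min at 25 °C. After filtration, bound radioactivity was counted and IC50 derived by non-linear regression.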

T1 sequence (P47871 26-477, species assumed): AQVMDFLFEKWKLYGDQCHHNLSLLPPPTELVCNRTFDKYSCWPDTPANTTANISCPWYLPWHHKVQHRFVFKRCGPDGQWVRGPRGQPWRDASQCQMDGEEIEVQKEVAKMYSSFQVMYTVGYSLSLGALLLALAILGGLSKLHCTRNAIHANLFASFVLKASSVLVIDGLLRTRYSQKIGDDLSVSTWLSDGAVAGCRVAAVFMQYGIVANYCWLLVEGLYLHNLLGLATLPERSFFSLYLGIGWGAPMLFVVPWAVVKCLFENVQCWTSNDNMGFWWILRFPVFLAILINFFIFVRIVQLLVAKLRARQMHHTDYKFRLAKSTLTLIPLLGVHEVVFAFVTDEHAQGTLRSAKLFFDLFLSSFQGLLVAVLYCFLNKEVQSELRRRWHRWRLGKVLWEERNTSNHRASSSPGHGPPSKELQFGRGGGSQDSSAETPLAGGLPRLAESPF
Sequence of GCGR (P47871 26-477, species assumed): as above

SMILES: CCCCC(Nc1ccc(C(=O)NCCC(=O)OCC)cc1)c1ccc(-c2nnc(C(C)(C)C)o2)cc1 (stereo not drawn) [Compound 1-19, Ethyl 3-(4-((1-(4-(5-(tert-butyl)-1,3,4-oxadiazol-2-yl)phenyl)pentyl)amino)benzamido)propanoate]
- IC50 (glucagon receptor (GCGR)): 203 nM
- IC50 (GCGR): 4410 nM

SMILES: CCCCC(Nc1ccc(C(=O)NCCC(=O)O)cc1)c1ccc(-c2nnc(C(F)(F)F)o2)cc1 (stereo not drawn) [Compound 1-14, 3-(4-((1-(4-(5-(trifluoromethyl)-1,3,4-oxadiazol-2-yl)phenyl)pentyl)amino)benzamido)propanoic acid]
- IC50 (glucagon receptor (GCGR)): 3450 nM
- IC50 (GCGR): 379 nM

SMILES: O=C(O)CCNC(=O)c1ccc(NC(c2ccc(-c3noc(-c4ccccc4)n3)cc2)C2CCCCC2)cc1 (stereo not drawn) [Compound 2-17, 3-(4-((cyclohexyl(4-(5-phenyl-1,2,4-oxadiazol-3-yl)phenyl)methyl)amino)benzamido)propanoic acid]
- IC50 (glucagon receptor (GCGR)): 511 nM
- IC50 (GCGR): 54 nM

SMILES: CC(C)CC(Nc1ccc(C(=O)NCCC(=O)O)cc1)c1ccc(-c2nnc(C(C)(C)C)o2)cc1 (stereo not drawn) [Compound 1-12]
- IC50 (glucagon receptor (GCGR)): 6710 nM
- IC50 (GCGR): 455 nM

SMILES: CCCC[C@H](Nc1ccc(C(=O)NCCC(=O)O)cc1)c1ccc(-c2nc(-c3ccccc3)no2)cc1 [Compound 5-8, (S)-3-(4-((1-(4-(3-phenyl-1,2,4-oxadiazol-5-yl)phenyl)pentyl)amino)benzamido)propanoic acid]
- IC50 (glucagon receptor (GCGR)): 202 nM
- IC50 (GCGR): 14 nM

SMILES: CCOC(=O)CCNC(=O)c1ccc(N[C@@H](c2ccc(-c3noc(-c4ccccc4)n3)cc2)C(C)CC)cc1 (stereo partly drawn) [Compound 2-20, ethyl 3-(4-(((1R)-2-methyl-1-(4-(5-phenyl-1,2,4-oxadiazol-3-yl)phenyl)butyl)amino)benzamido)propanoate]
- IC50 (glucagon receptor (GCGR)): 338 nM
- IC50 (GCGR): 217 nM

SMILES: CCCCC(Nc1ccc(C(=O)NCCC(=O)OCC)cc1)c1ccc(-c2nc3ccccc3o2)cc1 (stereo not drawn) [Compound 4-2, ethyl 3-(4-((1-(4-(benzo[d]oxazol-2-yl)phenyl)pentyl)amino)benzamido)propanoate]
- IC50 (glucagon receptor (GCGR)): 119 nM
- IC50 (GCGR): 799 nM

SMILES: CCOC(=O)CCNC(=O)c1ccc(N[C@H](c2ccc(-c3nnc(-c4ccccc4)o3)cc2)C(C)CC)cc1 (stereo partly drawn) [Compound 1-47, ethyl 3-(4-(((1S)-2-methyl-1-(4-(5-phenyl-1,3,4-oxadiazol-2-yl)phenyl)butyl)amino)benzamido)propanoate]
- IC50 (glucagon receptor (GCGR)): 37 nM
- IC50 (GCGR): 226 nM
- inhibition at 30 µM (GCGR; compound at 30 μM, read-out: percentage of inhibition (number in parenthesis in IC50 binding column)): 28%

SMILES: CC(C)[C@@H](Nc1ccc(C(=O)NCCC(=O)O)cc1)c1ccc(-c2nnc(-c3ccccc3)o2)cc1 [Compound 1-42, (R)-3-(4-(2-methyl-1-(4-(5-phenyl-1,3,4-oxadiazol-2-yl)phenyl)propylamino)benzamido)propanoic acid]
- IC50 (glucagon receptor (GCGR)): 2930 nM
- IC50 (GCGR): 2920 nM

SMILES: CCOC(=O)CCNC(=O)c1ccc(N[C@H](c2ccc(-c3nc4ccccc4s3)cc2)C(C)C)nc1 [Compound 4-27, ethyl (S)-3-(6-((1-(4-(benzo[d]thiazol-2-yl)phenyl)-2-methylpropyl)amino)nicotinamido)propanoate]
- IC50 (glucagon receptor (GCGR)): 42.3 nM
- IC50 (GCGR): 127 nM

SMILES: CCOC(=O)CCNC(=O)c1ccc(NC(c2ccc(-c3nnc(-c4ccc(OC)cc4)o3)cc2)C(C)C)cc1 (stereo not drawn) [Compound 1-25, ethyl 3-(4-((l-(4-(5-(4-methoxyphenyl)-1,3,4-oxadiazol-2-yl)phenyl)-2-methylpropyl)amino)benzamido)propanoate]
- IC50 (glucagon receptor (GCGR)): 284 nM
- IC50 (GCGR): > 30000 nM

SMILES: CCCC[C@@H](Nc1ccc(C(=O)NCCC(=O)OCC)cc1)c1ccc(-c2noc(-c3ccccc3)n2)cc1 [Compound 2-35, ethyl (R)-3-(4-((1-(4-(5-phenyl-1,2,4-oxadiazol-3-yl)phenyl)pentyl)amino)benzamido)propanoate]
- IC50 (glucagon receptor (GCGR)): 852 nM
- IC50 (GCGR): 40 nM

SMILES: CCCC[C@@H](Nc1ccc(C(=O)NCCC(=O)OCC)cc1)c1ccc(-c2nnc(-c3ccccn3)o2)cc1 [Compound 1-44, ethyl (R)-3-(4-((1-(4-(5-(pyridin-2-yl)-1,1,3,4-oxadiazol-2-yl)phenyl)pentyl)amino)benzamido propanoate]
- IC50 (glucagon receptor (GCGR)): 830 nM
- IC50 (GCGR): > 30000 nM

SMILES: CCOC(=O)CCNC(=O)c1ccc(NC(c2ccc(-c3noc(-c4cccs4)n3)cc2)C(C)C)cc1 (stereo not drawn) [Compound 2-11, ethyl 3-(4-((2-methyl-1-(4-(5-(thiophen-2-yl)-1,2,4-oxadiazol-3-yl)phenyl)propyl)amino)benzamido)propanoate]
- IC50 (glucagon receptor (GCGR)): 180 nM
- IC50 (GCGR): 3060 nM
- inhibition (GCGR; read-out: percentage of inhibition (number in parenthesis in IC50 binding column)): 38%

SMILES: COC(=O)CCNC(=O)c1ccc(NC(c2ccc(-c3nnc(-c4ccccc4)o3)cc2)C(C)C)cc1 (stereo not drawn) [Compound 1-2, Methyl 3-(4-((2-methyl-1-(4-(5-phenyl-1,3,4-oxadiazol-2-yl)phenyl)propyl)amino)benzamido)propanoate]
- IC50 (glucagon receptor (GCGR)): 113 nM
- IC50 (GCGR): 1220 nM

SMILES: O=C(O)CCNC(=O)c1ccc(N[C@@H](c2ccc(-c3nc4ccccc4o3)cc2)C2CCCC2)cc1 [Compound 4-12, (R)-3-(4-(((4-(benzo[d]oxazol-2-yl)phenyl)(cyclopentyl)methyl)amino)benzamido)propanoic acid]
- IC50 (glucagon receptor (GCGR)): 754 nM
- IC50 (GCGR): 23.8 nM

SMILES: CCOC(=O)CCNC(=O)c1ccc(N[C@@H](c2ccc(-c3nnc(-c4ccccc4)o3)cc2)C(C)C)cc1 [Compound 1-40, (R)-ethyl 3-(4-(2-methyl-1-(4-(5-phenyl-1,3,4-oxadiazol-2-yl)phenyl)propylamino)benzamido)propanoate]
- IC50 (glucagon receptor (GCGR)): 162 nM
- IC50 (GCGR): > 30000 nM

SMILES: CCOC(=O)CCNC(=O)c1ccc(C(Oc2ccc(-c3nc4ccccc4s3)cc2)C(C)C)cc1 (stereo not drawn) [Compound 7-3, Ethyl 3-(4-(1-(4-(benzo[d]thiazol-2-yl)phenoxy)-2-methylpropyl)benzamido)propanoate]
- IC50 (glucagon receptor (GCGR)): 292 nM
- IC50 (GCGR): 2110 nM

SMILES: CCCCC(Nc1ccc(C(=O)NCCC(=O)O)cc1)c1ccc(-c2noc(-c3ccccc3)n2)cc1 (stereo not drawn) [Compound 2-8, 3-(4-((1-(4-(5-phenyl-1,2,4-oxadiazol-3-yl)phenyl)pentyl)amino)benzamido)propanoic acid]
- IC50 (glucagon receptor (GCGR)): 934 nM
- IC50 (GCGR): 70 nM

SMILES: CCC(C)[C@@H](Nc1ccc(C(=O)NCCC(=O)O)cc1)c1ccc(-c2noc(-c3ccccc3)n2)cc1 (stereo partly drawn) [Compound 2-21, 3-(4-(((1R)-2-methyl-1-(4-(5-phenyl-1,2,4-oxadiazol-3-yl)phenyl)butyl)amino)benzamido)propanoic acid]
- IC50 (glucagon receptor (GCGR)): 569 nM
- IC50 (GCGR): 85 nM

SMILES: CCOC(=O)CCNC(=O)c1ccc(N[C@@H](c2ccc(-c3noc(-c4ccccc4)n3)cc2)C(C)C)cc1 [Compound 2-22, ethyl (R)-3-(4-((2-methyl-1-(4-(5-phenyl-1,2,4-oxadiazol-3-yl)phenyl)propyl)amino)benzamido)propanoate]
- IC50 (glucagon receptor (GCGR)): 245 nM
- IC50 (GCGR): 673 nM

SMILES: CCCC[C@H](Nc1ccc(C(=O)NCCC(=O)OCC)cc1)c1ccc(-c2noc(-c3ccccn3)n2)cc1 [Compound 2-37, ethyl (S)-3-(4-((1-(4-(5-(pyridin-2-yl)-1,2,4-oxadiazol-3-yl)phenyl)pentyl)amino)benzamido)propanoate]
- IC50 (glucagon receptor (GCGR)): 89.7 nM
- IC50 (GCGR): 1100 nM

SMILES: CCOC(=O)CCNC(=O)c1ccc(N[C@H](c2ccc(-c3nnc(C(F)(F)F)o3)cc2)C(C)C)cc1 [Compound 1-55, ethyl (S)-3-(4-((2-methyl-1-(4-(5-(trifluoromethyl)-1,3,4-oxadiazol-2-yl)phenyl)propyl)amino)benzamido)propanoate]
- IC50 (glucagon receptor (GCGR)): 1360 nM
- IC50 (GCGR): > 30000 nM

SMILES: CCCC[C@@H](Nc1ccc(C(=O)NCCC(=O)OCC)cc1)c1ccc(-c2noc(-c3ccccn3)n2)cc1 [Compound 2-39, ethyl (R)-3-(4-((1-(4-(5-(pyridin-2-yl)-1,2,4-oxadiazol-3-yl)phenyl)pentyl)amino)benzamido)propanoate]
- IC50 (glucagon receptor (GCGR)): 672 nM
- IC50 (GCGR): > 30000 nM

SMILES: CCCC[C@@H](Nc1ccc(C(=O)NCCC(=O)O)cc1)c1ccc(-c2noc(-c3ccccn3)n2)cc1 [Compound 2-40, (R)-3-(4-((1-(4-(5-(pyridin-2-yl)-1,2,4-oxadiazol-3-yl)phenyl)pentyl)amino)benzamido)propanoic acid]
- IC50 (glucagon receptor (GCGR)): 138 nM
- IC50 (GCGR): 1020 nM

SMILES: CC(C)C(Oc1ccc(-c2nc3ccccc3s2)cc1)c1ccc(C(=O)NCCC(=O)O)cc1 (stereo not drawn) [Compound 7-4, 3-(4-(1-(4-(Benzo[d]thiazol-2-yl)phenoxy)-2-methylpropyl)benzamido)propanoic acid]
- IC50 (glucagon receptor (GCGR)): 209 nM
- IC50 (GCGR): 208 nM

SMILES: CCCCC(Nc1ccc(-c2nnc(-c3ccccc3)o2)cc1)c1ccc(C(=O)NCCC(=O)OCC)cc1 (stereo not drawn) [Compound 3-3, ethyl 3-(4-(1-((4-(5-phenyl-1,3,4-oxadiazol-2-yl)phenyl)amino)pentyl)benzamido)propanoate]
- IC50 (glucagon receptor (GCGR)): 933 nM
- IC50 (GCGR): 1320 nM

SMILES: CC(C)C(Nc1ccc(C(=O)NCCC(=O)O)cc1)c1ccc(-c2noc(C(C)(C)C)n2)cc1 (stereo not drawn) [Compound 2-2, 3-(4-((1-(4-(5-(tert-butyl)-1,2,4-oxadiazol-3-yl)phenyl)-2-methylpropyl)amino)benzamido)propanoic acid]
- IC50 (glucagon receptor (GCGR)): 878 nM
- IC50 (GCGR): 171 nM

SMILES: CCCCC(Nc1ccc(C(=O)NCCS(=O)(=O)O)cc1)c1ccc(-c2nnc(-c3ccccc3)o2)cc1 (stereo not drawn) [Compound 1-13, 2-(4-((1-(4-(5-phenyl-1,3,4-oxadiazol-2-yl)phenyl)pentyl)amino)benzamido)ethane-1-sulfonic acid]
- IC50 (glucagon receptor (GCGR)): > 30000 nM
- IC50 (GCGR): 314 nM
